Results as given in publication PMC7796031, “Studies of Coumarin Derivatives for Constitutive Androstane Receptor (CAR) Activation” (Molecules, 2020).
“Also recorded” adds a separate entry of the source.

Target: T1, Constitutive androstane receptor (CAR) (Homo sapiens, UniProt Q14994)
T1 construct: The pGL4-gtPBREM plasmid was transfected into Hep3B cells; endogenous in cells
T1 sequence (Q14994 1-352): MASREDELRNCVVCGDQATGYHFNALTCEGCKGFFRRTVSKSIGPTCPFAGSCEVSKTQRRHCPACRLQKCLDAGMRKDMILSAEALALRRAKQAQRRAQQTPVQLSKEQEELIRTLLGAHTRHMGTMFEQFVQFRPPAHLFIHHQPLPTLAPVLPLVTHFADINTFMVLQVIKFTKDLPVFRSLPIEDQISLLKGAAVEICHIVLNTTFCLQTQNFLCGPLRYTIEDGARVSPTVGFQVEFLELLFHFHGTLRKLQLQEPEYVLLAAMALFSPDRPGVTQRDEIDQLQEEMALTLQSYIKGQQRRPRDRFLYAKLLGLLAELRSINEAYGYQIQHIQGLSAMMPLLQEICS
Experiment: In vitro CAR activation screening assay (UGT1A1 promoter gtPBREM-pGL4 luciferase reporter in Hep3B-gtPBREM cells)
Type: cell-based
Conditions: 10 μM
Description: Until now, there is no commercially available high throughput screening method for CAR activation. Traditionally, CAR activation can be detected in western blots by its downstream signals such as UGT1A1, MRP2 or CYP2B6. […] However, this method was slow and pricy. In order to rapidly screen all the compounds for CAR activation at less cost, an in vitro CAR activation screening assay was developed: DNA was extracted from Hep3B cells and UGT1A1 promoter was obtained using PCR amplification. Ligation between UGT1A1 promoter and pGL4 vector was performed and the plasmid was amplified via E. coli replication. The desired plasmid was extracted from E. coli and transfected into Hep3B. The desired colony bearing UGT1A1 promoter-pGL4 plasmid was selected by neomycin. CAR activation was measured by adding tested compounds to Hep3B for several hours and luminescence was measured. Higher activation will get higher luminescence readout. This assay system was validated with two different CAR agonists: CITCO (direct agonist) and scoparone (an indirect agonist). […] Different concentration of scoparone at 1, 5, 10 and 20 μM had been tested either for luciferase assay or downstream UGT1A1 and MRP2 expression (data not shown) and 10 μM was selected to be the best condition for the following work.
After successfully establishing the in vitro assay, all of the coumarin compounds were subjected to the screening (at 10 μM) and their SAR was discussed. Although the reporter system can successfully identify CAR-activating compounds under 8 h and display better efficiency and sensitivity compared with western blots, it only presented a medium luciferase response. According to previous studies, CITCO was reported to only moderately enhance human CAR (less than 2-fold), compared with the enhance provided by TCPOBOP for murine CAR (5- to 10-fold) in luciferase reporter assays. […] Another possibility for the medium response in our reporter system might be the contribution of the whole gtPBREM element which might include response-suppressive elements that was used and the single nucleotide variation of DR3 element which was reported to slightly reduce the original UGT1A1 activity.
The genomic DNA was isolated from Hep3B cells using Wizard® Genomic DNA Purification Kit (Promega, Fitchburg, WI, USA). The promoter region of UGT1A1 gene, gtPBREM element, was amplified by AccuPrime^TM Taq DNA Polymerase High Fidelity Kit (Invitrogen, MA, USA). The sequence of the amplified element was confirmed by DNA sequencing company and cloned into pGL4 luciferase reporter vector. The pGL4-gtPBREM plasmid was transfected into Hep3B cells. The stable pGL4-gtPBREM transfected Hep3B cells, Hep3B-gtPBREM cells, were established after G418 selection. The luciferase activity represented of CAR activation ability was measured using individual established clone. Further, CAR-shRNA was obtained from the Genomic Research Center and transfected into Hep3B-gtPBREM cells. The transient transfected shCAR-Hep3B-gtPBREM cells were used for further luciferase assays.
The Hep3B-gtPBREM cells and shCAR-Hep3B-gtPBREM cells (1.5 × 10^5 cells/well) were seeded into 12-well plates for overnight then pre-determined concentration compounds were added for desired time. After treatment, transfected cells were washed twice in PBS, lysated with 1× passive lysis buffer and luciferase intensity of equal amount of cell lysate was measured by a Synergy HT Multi-Mode Microplate Reader (BioTek, Winooski, VT, USA).

| SMILES | CAR activation compared with scoparone |
| --- | --- |
| COc1cc2oc(=O)ccc2cc1OC1OC(CO)C(O)C(O)C1O (stereo not shown) [Compound 52, isoscopolin] | superior CAR activating activity than scoparone |
| COc1cc2ccc(=O)oc2cc1O[C@@H]1O[C@H](CO)[C@@H](O)[C@H](O)[C@H]1O [Compound 53, scopolin] | superior CAR activating activity than scoparone |
| COc1cc(OC)c2ccc(=O)oc2c1O [Compound 57, 5,7-dimethoxy-8-hydroxycoumarin] | comparable CAR activation effects to scoparone; also recorded: superior CAR activating activity than scoparone |
| COc1cc2ccc(=O)oc2c(OC)c1OC [Compound 58, 6,7,8-trimethoxycoumarin] | comparable CAR activation effects to scoparone |
| COc1cc2ccc(=O)oc2c2c1OCO2 [Compound 59, 6-Methoxy-7,8-methylenedioxycoumarin] | superior CAR activating activity than scoparone |
| COc1c2c(c3oc(=O)ccc3c1OC)OCO2 [Compound 60, 5,6-dimethoxy-7,8-methylenedioxycoumarin] | good activity; also recorded: superior CAR activating activity than scoparone |

Same assay, conditions: 10 μM; compared to scoparone

| increased CAR activation fold | SMILES |
| --- | --- |
| 36% | COc1cc2ccc(=O)oc2c2c1OCO2 [Compound 59, 6-Methoxy-7,8-methylenedioxycoumarin] |

Same assay, conditions: Table 1; 10 μM; (luminescence of compound − luminescence of scoparone)/luminescence of scoparone × 100%; read-out: CAR Activation Fold

| activation at 10 µM | SMILES |
| --- | --- |
| 6% | O=c1ccc2c(O)cccc2o1 [Compound 1, 5-hydroxycoumarin] |
| -20% | COc1cccc2oc(=O)ccc12 [Compound 2, 5-methoxycoumarin] |
| -32% | CC(=O)Oc1cccc2oc(=O)ccc12 [Compound 3] |
| -15% | C=CCOc1cccc2oc(=O)ccc12 [Compound 4] |
| -9% | CCCCOc1cccc2oc(=O)ccc12 [Compound 5] |
| -18% | CC(C)=CCCC(C)=CCOc1cccc2oc(=O)ccc12 [Compound 7] |
| 2% | CC(C)=CCCC(C)=CCCC(C)=CCOc1cccc2oc(=O)ccc12 [Compound 8] |
| -8% | O=c1ccc2cc(O)ccc2o1 [Compound 9, 6-hydroxycoumarin] |
| 32% | COc1ccc2oc(=O)ccc2c1 [Compound 10, 6-methoxycoumarin] |
| -34% | O=c1ccc2cc(OC(F)(F)F)ccc2o1 [Compound 11, 6-Trifluoromethoxycoumarin] |
| -22% | CC(=O)Oc1ccc2oc(=O)ccc2c1 [Compound 12] |
| -17% | C=CCOc1ccc2oc(=O)ccc2c1 [Compound 13] |
| 37% | CCCCOc1ccc2oc(=O)ccc2c1 [Compound 14] |
| 22% | CC(C)=CCOc1ccc2oc(=O)ccc2c1 [Compound 15] |
| 18% | CC(C)=CCCC(C)=CCOc1ccc2oc(=O)ccc2c1 [Compound 16] |
| -41% | CC(C)=CCCC(C)=CCCC(C)=CCOc1ccc2oc(=O)ccc2c1 [Compound 17] |
| -1% | O=c1ccc2ccc(O)cc2o1 [Compound 18, umbelliferone] |
| -9% | COc1ccc2ccc(=O)oc2c1 [Compound 19, 7-methoxycoumarin] |
| 18% | O=c1ccc2ccc(OC(F)(F)F)cc2o1 [Compound 20, 7-Trifluoromethoxycoumarin] |
| -37% | CC(=O)Oc1ccc2ccc(=O)oc2c1 [Compound 21] |
| -35% | CC(C)=CCOc1ccc2ccc(=O)oc2c1 [Compound 24] |
| -13% | CC(C)=CCCC(C)=CCOc1ccc2ccc(=O)oc2c1 [Compound 25, aurapten] |
| -29% | CC(C)=CCCC(C)=CCCC(C)=CCOc1ccc2ccc(=O)oc2c1 [Compound 26] |
| 40% | O=c1ccc2cccc(O)c2o1 [Compound 27, 8-hydroxycoumarin] |
| -8% | COc1cccc2ccc(=O)oc12 [Compound 28, 8-methoxycoumarin] |
| -33% | CC(=O)Oc1cccc2ccc(=O)oc12 [Compound 29] |
| -34% | C=CCOc1cccc2ccc(=O)oc12 [Compound 30] |
| 2% | CC(C)=CCOc1cccc2ccc(=O)oc12 [Compound 32] |
| -30% | CC(C)=CCCC(C)=CCOc1cccc2ccc(=O)oc12 [Compound 33] |
| 19% | CC(C)=CCCC(C)=CCCC(C)=CCOc1cccc2ccc(=O)oc12 [Compound 34] |

| SMILES | activation at 10 µM |
| --- | --- |
| CCCCOc1cccc2ccc(=O)oc12 [Compound 31, 8-n-Butoxycoumarin] | 4% |

Same assay, conditions: Table 2; 10 μM; (luminescence of compound − luminescence of scoparone)/luminescence of scoparone × 100%; read-out: CAR Activation Fold

| activation at 10 µM | SMILES |
| --- | --- |
| -22% | O=c1ccc2cc(O)c(O)cc2o1 [Compound 35, esculetin] |
| -17% | Cc1cc2ccc(=O)oc2cc1C [Compound 36] |
| -10% | COc1cc2oc(=O)ccc2cc1O [Compound 37, isoscopoletin] |
| -1% | COc1cc2ccc(=O)oc2cc1O [Compound 38, scopoletin] |
| 7% | O=c1ccc2cc3c(cc2o1)OCO3 [Compound 40, ayapin] |
| -50% | O=c1ccc2cc3c(cc2o1)OCCO3 [Compound 41] |
| -26% | CCOc1cc2ccc(=O)oc2cc1OCC [Compound 42] |
| -11% | CC(=O)Oc1cc2ccc(=O)oc2cc1OC(C)=O [Compound 43] |
| -18% | C=CCOc1cc2ccc(=O)oc2cc1OCC=C [Compound 44, 6,7-Dialloxycoumarin] |
| -37% | CCCOc1cc2ccc(=O)oc2cc1OCCC [Compound 45] |
| -5% | CCCCCCOc1cc2ccc(=O)oc2cc1OCCCCCC [Compound 49, 6,7-Dihexoxycoumarin] |
| -32% | CC(C)=CCC/C(C)=C/COc1cc2ccc(=O)oc2cc1OC/C=C(\C)CCC=C(C)C [Compound 51, 6,7-Digeranoxycoumarin] |
| 35% | COc1cc2oc(=O)ccc2cc1OC1OC(CO)C(O)C(O)C1O (stereo not shown) [Compound 52, isoscopolin] |
| 17% | COc1cc2ccc(=O)oc2cc1O[C@@H]1O[C@H](CO)[C@@H](O)[C@H](O)[C@H]1O [Compound 53, scopolin] |

| SMILES | activation at 10 µM |
| --- | --- |
| CCCCOc1cc2ccc(=O)oc2cc1OCCCC [Compound 46, 6,7-Di-n-butoxycoumarin] | -39% |
| CC(C)CCOc1cc2ccc(=O)oc2cc1OCCC(C)C [Compound 48, 6,7-Di-isopentoxycoumarin] | -61% |

Same assay, conditions: Table 3; 10 μM; (luminescence of compound − luminescence of scoparone)/luminescence of scoparone × 100%; read-out: CAR Activation Fold

| activation at 10 µM | SMILES |
| --- | --- |
| -19% | COc1cc2oc(=O)ccc2c(OC)c1OC [Compound 54, 5,6,7-trimethoxycoumarin] |
| -14% | COc1cc(OC)c2ccc(=O)oc2c1OC [Compound 56] |
| 2% | COc1cc(OC)c2ccc(=O)oc2c1O [Compound 57, 5,7-dimethoxy-8-hydroxycoumarin] |
| 0% | COc1cc2ccc(=O)oc2c(OC)c1OC [Compound 58, 6,7,8-trimethoxycoumarin] |
| 36% | COc1cc2ccc(=O)oc2c2c1OCO2 [Compound 59, 6-Methoxy-7,8-methylenedioxycoumarin] |
| 12% | COc1c2c(c3oc(=O)ccc3c1OC)OCO2 [Compound 60, 5,6-dimethoxy-7,8-methylenedioxycoumarin] |

Same assay, conditions: read-out: CAR Activation Fold

| SMILES | activation at 10 µM |
| --- | --- |
| C=CCOc1ccc2ccc(=O)oc2c1 [Compound 22] | -46% |
| CCCCOc1ccc2ccc(=O)oc2c1 [Compound 23] | -51% |
| COc1cc2oc(=O)ccc2c(OC)c1O [Compound 55, fraxinol] | -17% |

System: not given
Experiment: not given
Conditions: not given

| melting point | SMILES |
| --- | --- |
| 83 to 85 °C | O=c1ccc2cc(OC(F)(F)F)ccc2o1 [Compound 11, 6-Trifluoromethoxycoumarin] |
| 69 to 71 °C | O=c1ccc2ccc(OC(F)(F)F)cc2o1 [Compound 20, 7-Trifluoromethoxycoumarin] |
| 84 to 85 °C | C=CCOc1cc2ccc(=O)oc2cc1OCC=C [Compound 44, 6,7-Dialloxycoumarin] |

| SMILES | melting point |
| --- | --- |
| CCCCOc1cc2ccc(=O)oc2cc1OCCCC [Compound 46, 6,7-Di-n-butoxycoumarin] | 77 to 79 °C |
